# Reference: patent publication US12350269B2 (Alexion Pharmaceuticals, Inc., priority 2015, dated 2025)
# Legend:
# Assay in all cases: DLBCL cell line viability, CellTiter Glo
# Format in all cases: cell-based
# Conditions in all cases: read-out: IC50 of Kinase Inhibitor in CellTiter Glo Assay
# LY18 = tested on: LY18
# Protocol: (§1) Each IC50 value is an average of at least four replicate experiments. Subsequent analysis using a FACS based caspase 3 cleavage detection kit (BD Biosciences) and Edu incorporation were performed.
# VAL = tested on: VAL
# Protocol: as §1
# DHL6 = tested on: DHL6
# Protocol: as §1
# LY10 = tested on: LY10
# Protocol: as §1
# DHL5 = tested on: DHL5
# Protocol: as §1
# U2932 = tested on: U2932
# Protocol: as §1
# LY1 = tested on: LY1
# Protocol: as §1
# DHL10 = tested on: DHL10
# Protocol: as §1
# LY7 = tested on: LY7
# Protocol: as §1
# DHL8 = tested on: DHL8
# Protocol: as §1
# DLCL2 = tested on: DLCL2
# Protocol: as §1
# DB = tested on: DB
# Protocol: as §1
# TOLEDO = tested on: TOLEDO
# Protocol: as §1
# RCK8 = tested on: RCK8
# Protocol: as §1
smiles,measurement,setting,value
CC(C)(C)c1nc2c3cc[nH]c(=O)c3c3cc(F)ccc3c2[nH]1 [Pan-Jak],IC50,LY18,0.8 µM
same,IC50,VAL,5.2 µM
same,IC50,DHL6,2.63 µM
same,IC50,LY10,5.1 µM
same,IC50,DHL5,39 µM
same,IC50,U2932,3.9 µM
same,IC50,LY1,0.7 µM
same,IC50,DHL10,40 µM
same,IC50,LY7,34 µM
same,IC50,DHL8,28 µM
same,IC50,DLCL2,42 µM
same,IC50,DB,21.4 µM
same,IC50,TOLEDO,5.9 µM
same,IC50,RCK8,43 µM
